The values that follow come from publication PMC3795654, “Combinatorial Optimization of Cystine-Knot Peptides towards High-Affinity Inhibitors of Human Matriptase-1” (PLoS ONE, 2013).

Structures are written as SMILES. Where two headings read alike, the source gives them in different places. Where a SMILES comes first, the peptide text is derived from it. Bridges are numbered along the chain shown (N, C = ends). Bounds are passed on as bounds.

One test has as its target T1, Human matriptase-1 (Homo sapiens, UniProt Q9Y5Y6).
T1 construct: made in house
T1 sequence (Q9Y5Y6 615-855 limits assumed): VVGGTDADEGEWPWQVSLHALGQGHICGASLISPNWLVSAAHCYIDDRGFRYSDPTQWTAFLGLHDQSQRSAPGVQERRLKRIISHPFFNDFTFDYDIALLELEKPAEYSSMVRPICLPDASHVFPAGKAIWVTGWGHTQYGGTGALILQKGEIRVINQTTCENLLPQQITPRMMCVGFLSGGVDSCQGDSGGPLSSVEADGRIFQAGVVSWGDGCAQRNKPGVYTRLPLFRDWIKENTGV
As to the kind of experiment: Matriptase-1 inhibition assay (Ki / Ki app). Format: biochemical.

In test [1] the target is T2, Bovine pancreatic trypsin (Bos taurus, UniProt P00760).
T2 construct: purchased Sigma-Aldrich
T2 sequence (P00760 24-246): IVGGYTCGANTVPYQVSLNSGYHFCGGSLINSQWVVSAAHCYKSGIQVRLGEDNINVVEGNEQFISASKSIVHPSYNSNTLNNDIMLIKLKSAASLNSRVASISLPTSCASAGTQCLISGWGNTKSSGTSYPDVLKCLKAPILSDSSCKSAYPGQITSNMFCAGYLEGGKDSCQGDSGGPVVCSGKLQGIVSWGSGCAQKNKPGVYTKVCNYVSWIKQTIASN
The experiment in a line: Trypsin inhibition assay (substrate-independent Ki). Format: biochemical. To be noted: substrate-independent Ki from Ki app (Morrison equation) and Km; 250 µM substrate; preincubation 30 min RT; read over 30 min; triplicate.
Description: Bovine pancreatic trypsin, thrombin and uPA were purchased from Sigma-Aldrich and Hepsin from R&D Systems.
Measurements were carried out in triplicate using a Tecan Genios ELISA reader. The normalized residual proteolytic activity (v/v0) of proteases was determined using substrates Boc-QAR-pNA (250 µM, (pNA stands for para-nitro aniline), Boc-QAR-AMC (250 µM, AMC stands for amino-methyl coumarin) or Spectrozym tPA (250 µM, American Diagnostica, CH3SO2-D-CHT-Gly-Arg-pNA AcOH). Product formation was monitored after preincubation (30 min, RT) with inhibitor at different concentrations over 30 min by measuring the absorbance at 405 nm for pNA substrates or the fluorescence emission for AMC substrates (ex. 360 nm, em. 465 nm), respectively. Selectivity data were carried out in duplicates with final protease concentrations of uPA and thrombin of 5 nM. In case of hepsin 50 mM Tris/HCl pH 9.0 was used as assay buffer.
(§1) Apparent inhibition constants (Ki ^app) were calculated by fitting the Morrison equation (1) for tight-binding inhibitors to the relative reaction velocity using non-linear regression (Marquardt-Levenberg algorithm, Sigma Plot 11) [63].
(§2) Substrate-independent inhibition constants Ki were calculated from Ki ^app and Km of the enzyme according to (2).

The test system of test [2] is uPA activation by matriptase-1 on the surface of PC-3 cells. As to the kind of experiment: Cell inhibition assay: uPA activation by matriptase-1 on the surface of PC-3 cells. Format: cell-based, human. To be noted: control, concentration of 10 µM. How it is done: Human prostate cancer cells (PC-3, Merck KGaA) were cultured in DMEM medium with 10% FCS at 37°C and 5% CO2, washed with cation-free PBS and harvested by scraping. 1×10^5 cells were incubated in presence of 250 µM Bz-β-Ala-Gly-Arg-pNA·AcOH (American Diagnostica), which is a specific […] of urokinase, and the inhibitor of interest in defined dilutions overnight. Product formation was monitored at 405 nm before and after incubation in a microplate reader. IC50 was calculated by non-linear regression using SigmaPlot 11.
Urokinase-type plasminogen activator (uPA) causes the degradation of the extracellular matrix and plays a critical role in tumor invasion and metastasis, [73]. It was shown that activation of receptor-bound pro-uPA is affected by matriptase-1, which results in a decreased ability of uPAexpressing tumor cells to invade an extracellular matrix layer upon inhibition of membrane-bound matriptase-1 [72].
For the indirect determination of the IC50 of SOTI Var. 1 and MCoTI Var. 4 on the surface of these cancer cells, the turnover of an uPA substrate was monitored. Pro-uPA is activated through non-inhibited matriptase-1 and substrate turnover was measured and compared to the previously reported small molecule inhibitor S1 of matriptase-1 (Figure 4). In this experimental setting, the MCoTI-based inhibitor Var. […] 4 in this assay.
Figure 4 Inhibition assay of uPA activation by matriptase-1 on the surface of PC-3 cells. Depicted is the logarithmic inhibitor concentration against the absorption at 405 TEXT PRINTED IN THE PICTURE: MCoTI Var.

The mark [3] stands for this setting: substrate-independent Ki from Ki app (Morrison equation) and Km, 250 µM substrate, preincubation 30 min RT, read over 30 min, triplicate, read-out: Ki (Matriptase-1).
[4] abbreviates: apparent inhibition constant (Morrison equation), MCoTI variants isolated from M. cochinchinensis seeds, oMCoTI-II synthetic, read-out: Kiapp towards matriptase-1.

Description for Human matriptase-1: Human matriptase-1 was produced recombinantly, autocatalytically activated and purified as previously reported [35], [49], [51], [60].
Measurements were carried out in triplicate using a Tecan Genios ELISA reader.
as §1, §2

With `CC[C@H](C)[C@@H]1NC(=O)[C@H](C)NC(=O)CNC(=O)[C@H](CO)NC(=O)[C@@H]2CCCN2C(=O)[C@H](CO)NC(=O)[C@@H](NC(=O)[C@H](CCCCN)NC(=O)[C@H](CC(=O)O)NC(=O)[C@@H](N)CCC(=O)O)CSSC[C@@H]2NC(=O)[C@@H]3CSSC[C@@H](C(=O)N[C@@H](CCC(N)=O)C(=O)O)NC(=O)[C@H](CCCNC(=N)N)NC(=O)[C@H](Cc4c[nH]c5ccccc45)NC(=O)[C@H](CO)NC(=O)[C@H](CCCNC(=N)N)NC(=O)[C@H](C)NC(=O)[C@H](CCCNC(=N)N)NC(=O)[C@H](CCCNC(=N)N)NC(=O)[C@H](CC(N)=O)NC(=O)[C@H](CC(C)C)NC(=O)[C@H](C(C)C)NC(=O)[C@H](CSSC[C@H](NC1=O)C(=O)N[C@@H](CO)C(=O)NCC(=O)N[C@@H](Cc1ccccc1)C(=O)NCC(=O)N1CCC[C@H]1C(=O)N1CCC[C@H]1C(=O)N[C@@H](CCC(=O)O)C(=O)N[C@@H](CCC(N)=O)C(=O)N3)NC(=O)[C@H](C)NC(=O)CNC(=O)[C@H](CO)NC2=O` [SOTI Var. 1] (H-EDKCSPSGAICSGFGPPEQCCSGACVLNRRARSWRCQ-OH; disulfide 4-21, 11-25, 20-36), at Human matriptase-1 (setting [3]), the Ki was determined as 0.0289 ± 0.0035 µM. For the same compound, in test [1], the Ki is over 1 µM and the “Ki (Trypsin)” value was “total loss of trypsin inhibition”.
For the compound `CC[C@H](C)[C@@H]1NC(=O)[C@@H]2CSSC[C@@H]3NC(=O)[C@H](C(C)C)NC(=O)CNC(=O)CNC(=O)C[C@@H](C(=O)O)NC(=O)[C@H](CO)NC(=O)CNC(=O)[C@H](CO)NC(=O)CNC(=O)[C@@H]4CSSC[C@H](NC(=O)[C@H](CC(=O)O)NC(=O)[C@H](CO)NC(=O)[C@H](CC(=O)O)NC(=O)[C@H](CCCNC(=N)N)NC(=O)[C@H](CCCNC(=N)N)NC(=O)[C@H](CSSC[C@H](NC1=O)C(=O)N[C@@H](CCCNC(=N)N)C(=O)NCC(=O)N[C@@H](CC(N)=O)C(=O)NCC(=O)N[C@@H](Cc1ccc(O)cc1)C(=O)N4)NC(=O)[C@H](CCCCN)NC(=O)[C@H](CCCCN)NC(=O)[C@H](CC(C)C)NC(=O)[C@H]([C@@H](C)CC)NC(=O)[C@H](CCCCN)NC(=O)[C@@H]1CCCN1C3=O)C(=O)N1CCC[C@H]1C(=O)NCC(=O)N[C@@H](C)C(=O)N2` [MCoTI-II (ß-asp), reference compound] (GGVCPKILKKCRRDSDCPGACICRGNGYCGSGSD-OH; disulfide 4-21, 11-23, 17-29; lactam N-34), the Ki at Human matriptase-1 (setting [4]) was 0.388 ± 0.032 µM.
On to `CC[C@H](C)[C@@H]1NC(=O)[C@H](C)NC(=O)CNC(=O)[C@H](CO)NC(=O)[C@@H]2CCCN2C(=O)[C@H](CO)NC(=O)[C@@H](NC(=O)[C@H](CCCCN)NC(=O)[C@H](CC(=O)O)NC(=O)[C@@H](N)CCC(=O)O)CSSC[C@@H]2NC(=O)[C@@H]3CSSC[C@@H](C(=O)N[C@@H](CCC(N)=O)C(=O)O)NC(=O)[C@H](C(C)C)NC(=O)[C@H](Cc4ccccc4)NC(=O)[C@H]([C@@H](C)CC)NC(=O)[C@H](CCCNC(=N)N)NC(=O)[C@H](CC(C)C)NC(=O)[C@H]([C@@H](C)CC)NC(=O)[C@@H]4CCCN4C(=O)[C@H](Cc4c[nH]cn4)NC(=O)[C@@H]4CCCN4C(=O)[C@H](C(C)C)NC(=O)[C@H](CSSC[C@H](NC1=O)C(=O)N[C@@H](CO)C(=O)NCC(=O)N[C@@H](Cc1ccccc1)C(=O)NCC(=O)N1CCC[C@H]1C(=O)N1CCC[C@H]1C(=O)N[C@@H](CCC(=O)O)C(=O)N[C@@H](CCC(N)=O)C(=O)N3)NC(=O)[C@H](C)NC(=O)CNC(=O)[C@H](CO)NC2=O` [SOTI-III wt, Spinacia oleracea trypsin inhibitor III, reference compound] (H-EDKCSPSGAICSGFGPPEQCCSGACVPHPILRIFVCQ-OH; disulfide 4-21, 11-25, 20-36), for which the “Ki (Matriptase-1)” value at Human matriptase-1 (substrate-independent Ki from Ki app (Morrison equation) and Km, 250 µM substrate, preincubation 30 min RT, read over 30 min, triplicate) is recorded as “did not display measurable inhibitory activity”. Besides, the Ki on Human matriptase-1 (setting [3]) was over 1 µM; in test [1], 0.0606 ± 0.0084 µM. Also, in test [2], the “inhibition of matriptase-1 or uPA in the PC-3 assay” value is “no inhibition”.
Regarding `CC[C@H](C)[C@H](N)C(=O)NCC(=O)N[C@H](C(=O)N[C@H]1CSSC[C@@H]2NC(=O)[C@H](C)NC(=O)CNC(=O)[C@@H]3CCCN3C(=O)[C@@H]3CSSC[C@@H](C(=O)NCC(N)=O)NC(=O)[C@H](Cc4ccc(O)cc4)NC(=O)CNC(=O)[C@H](CC(N)=O)NC(=O)CNC(=O)[C@H](CCCNC(=N)N)NC(=O)[C@H](CSSC[C@H](NC(=O)[C@H](C)NC(=O)[C@H](CCCNC(=N)N)NC(=O)[C@H](CC(C)C)NC(=O)[C@H](CC(C)C)NC(=O)[C@H](CCCCN)NC(=O)[C@@H]4CCCN4C1=O)C(=O)N[C@@H](CCCNC(=N)N)C(=O)N[C@@H](CCCNC(=N)N)C(=O)N[C@@H](CC(=O)O)C(=O)N[C@@H](CO)C(=O)N[C@@H](CC(=O)O)C(=O)N3)NC(=O)[C@H]([C@@H](C)CC)NC2=O)C(C)C` [MCoTI Var. 1] (H-IGVCPKLLRACRRDSDCPGACICRGNGYCG-NH2; disulfide 4-21, 11-23, 17-29), the values for the Ki (on Human matriptase-1 (setting [3]); in test [1]) were 0.0044 ± 0.0006 µM and 0.0317 ± 0.0043 µM, respectively.
Take `CC[C@H](C)[C@@H]1NC(=O)[C@@H]2CSSC[C@H](NC(=O)[C@@H](NC(=O)CNC(=O)[C@@H](N)CO)C(C)C)C(=O)N3CCC[C@H]3C(=O)N[C@@H](CCCCN)C(=O)N[C@@H]([C@@H](C)CC)C(=O)N[C@@H](CC(C)C)C(=O)N[C@@H](CCCCN)C(=O)N[C@@H](CCCCN)C(=O)N[C@H]3CSSC[C@H](NC1=O)C(=O)N[C@@H](CCCNC(=N)N)C(=O)NCC(=O)N[C@@H](CC(N)=O)C(=O)NCC(=O)N[C@@H](Cc1ccc(O)cc1)C(=O)N[C@H](C(=O)NCC(N)=O)CSSC[C@H](NC(=O)[C@H](CC(=O)O)NC(=O)[C@H](CO)NC(=O)[C@H](CC(=O)O)NC(=O)[C@H](CCCNC(=N)N)NC(=O)[C@H](CCCNC(=N)N)NC3=O)C(=O)N1CCC[C@H]1C(=O)NCC(=O)N[C@@H](C)C(=O)N2` [oMCoTI-II, reference compound] (H-SGVCPKILKKCRRDSDCPGACICRGNGYCG-NH2; disulfide 4-21, 11-23, 17-29): the Ki on Human matriptase-1 (setting [4]) is 0.276 ± 0.013 µM.
On to `CC[C@H](C)[C@@H]1NC(=O)[C@@H]2CSSC[C@H](NC(=O)[C@H](CCCNC(=N)N)NC(=O)[C@H](CCCNC(=N)N)NC(=O)[C@@H](N)CC(N)=O)C(=O)N3CCC[C@H]3C(=O)N[C@@H](CCCCN)C(=O)N[C@@H](C(C)C)C(=O)N[C@@H](CC(C)C)C(=O)N[C@@H](CCCCN)C(=O)N[C@@H](C)C(=O)N[C@H]3CSSC[C@H](NC1=O)C(=O)N[C@@H](CCCNC(=N)N)C(=O)NCC(=O)N[C@@H](CC(N)=O)C(=O)NCC(=O)N[C@@H](Cc1ccc(O)cc1)C(=O)N[C@H](C(=O)NCC(N)=O)CSSC[C@H](NC(=O)[C@H](CC(=O)O)NC(=O)[C@H](CO)NC(=O)[C@H](CC(=O)O)NC(=O)[C@H](CCCNC(=N)N)NC(=O)[C@H](CCCNC(=N)N)NC3=O)C(=O)N1CCC[C@H]1C(=O)NCC(=O)N[C@@H](C)C(=O)N2` [MCoTI Var. 2], for which the Ki on Human matriptase-1 (setting [3]) amounted to 0.0033 ± 0.0004 µM; in test [1], 0.0192 ± 0.0028 µM.
